Measured values taken from PMC11079024, “Identification of a family of species-selective complex I inhibitors as potential anthelmintics” (Nature Communications, 2024).
Values joined by “and” are separate entries in the source; they are usually repeats but may differ in a detail not shown here. Equal entries are not always repeated.

Tests used:
[1] = test system: C. elegans complex III (decylubiquinol-cytochrome C reductase); assay: In vitro complex III activity assay, C. elegans mitochondria; type: biochemical, Caenorhabditis elegans; details: for % Activity Complex III: 100 µM compound, relative to solvent control, mean (SEM); for Percent in vitro activity, Complex III (single replicate Rep1-Rep4) / Percent in vitro activity, Complex III (Mean): 100 μM of NPD compound, C. elegans mitochondria; for Percent in vitro activity, Complex III (single replicate Rep1-Rep4): individual biological replicates; for Percent in vitro activity, Complex III (Mean): mean of four biological replicates
Procedure: (§1) Mitochondria were isolated from the following free-living nematode strains: C. elegans—N2, CB3474, ECA882, ECA917, ECA1075, ECA1080; C. briggsae—AF16; P. pacificus—PS312; and P. hermaphrodita—B178. With the exception of the P. hermaphrodita strain B178, adult worms of each strain were grown in bulk through liquid culture to obtain mitochondria in sufficient quantities. Due to poor growth in liquid media, mixed stage populations of P. hermaphrodita were washed off and collected from NGM plates seeded with OP50. The isolation of mitochondria from all free-living nematode strains followed the protocol previously outlined in Burns et al.[24]. In brief, a 1 L saturated culture of E. coli HB101 was concentrated 20-fold in 50 mL complete S-medium. ~500,000 L1 worms synchronized from an embryo preparation performed the day prior were added to the S-media/HB101 suspension and grown to adulthood over the course of 3.5 days at 20 °C with shaking at 165 rpm. Following growth, worms were collected in 10 ×15 mL conical tubes and washed 7 times in M9 buffer. Worm suspensions were then combined into a single 15 mL conical tube and diluted to a final volume of 15 mL with M9 buffer. 1 mL aliquots of worm suspension were then distributed to 15 × 1.5 mL screw-cap microcentrifuge tubes and were pelleted at 500 g for 1 min. Excess M9 was aspirated without disturbing the worm pellet. 600 μL ice-cold isolate buffer A (250 mM sucrose, 10 mM Tris (pH 7.5), 1 mM EDTA, 1 mM PMSF (freshly prepared)) and 300 μL cold glass beads were then added to each tube. Tubes were incubated on ice for 10 min, and the worms were then lysed by bead beating (6 x 30 s, with 1 min cooling intervals). Tubes containing worm lysate were centrifuged at 1,000 g for 10 min at 4 °C and the supernatant was transferred to 15 new microcentrifuge tubes on ice. The tubes were centrifuged a second time at 1,000 g for 10 min at 4 °C and the supernatant was once again transferred to 15 new microcentrifuge tubes on ice. These tubes were then centrifuged at 16,000 g for 10 min at 4 °C. The resulting mitochondrial pellet was washed twice by re-suspension in 300 μL of ice-cold isolate buffer B (250 mM sucrose, 10 mM Tris (pH 7.5), 1 mM EDTA). Following the final wash, isolation buffer was aspirated from each tube and the pellets were flash-frozen in ethanol/dry ice and stored at −80 °C until needed.
(§2) The enzymatic activities of individual ETC complexes (I-IV) were assessed spectrophotometrically in isolated mitochondria using a Varioskan LUX Multimode plate reader (ThermoFisher Scientific). Mitochondrial pellets previously isolated were thawed on ice and resuspended in ice-cold isolation buffer (250 mM sucrose, 10 mM Tris (pH 7.5), 1 mM EDTA). The BCA assay (Walker, 1994) was used to quantify the protein concentration of mitochondria suspensions; solutions were diluted to a concentration of 0.2 mg/mL for use in all assays. For the complex I assay, mitochondria pellets were freeze-thawed on ice three times to increase enzyme accessibility. […] 20 μL mitochondria suspension was then added/mixed with a pipette to initiate the reaction. Immediately following the addition of mitochondria, absorbance was measured (complex I and II: 600 nm; complex III and IV: 550 nm) in 30 s intervals over 15 min. Enzymatic activity was determined in each reaction by plotting absorbance versus time and calculating the slope of the curve during the initial linear phase of the reaction. […] Percent activity of each complex was calculated by dividing the enzyme-specific activity of each well by the enzyme-specific activity of the corresponding solvent controls.
Antimycin A-sensitive complex III (decylubiquinol-cytochrome C […]) activity was determined by measuring the reduction of cytochrome C (CytC) as optimized in Luo et al.[59]. Decylubiquinol for complex III assays was prepared fresh as described in Janssen and Boyle, 2019[60].

[2] = test system: C. elegans complex IV (cytochrome C oxidase); assay: In vitro complex IV activity assay, C. elegans mitochondria; type: biochemical, Caenorhabditis elegans; details: for % Activity Complex IV: 100 µM compound, relative to solvent control, mean (SEM); for Percent in vitro activity, Complex IV (single replicate Rep1-Rep4) / Percent in vitro activity, Complex IV (Mean): 100 μM of NPD compound, C. elegans mitochondria; for Percent in vitro activity, Complex IV (single replicate Rep1-Rep4): individual biological replicates; for Percent in vitro activity, Complex IV (Mean): mean of four biological replicates
Procedure: as §1, §2
Complex IV (cytochrome C oxidase) activity was determined by following the oxidation of CytC in the protocol outlined by Janssen and Boyle, 2019[60]. Reduced CytC was prepared fresh by adding 1 μL increments of 1 M dithiothreitol to a 1 mM solution of CytC and vortexing. A colour change from brown to orange/pink signals when CytC has been reduced.

C. elegans = C. elegans chemical screens of RIKEN NPD libraries at 50 μM (hit identification in KCN survival and development/viability assays); type: cell-based, Caenorhabditis elegans; details: screened at 50 μM in triplicate, KCN = KCN survival assay, Dev. & Viability = development/viability assay
[3] = target: C. elegans (N2) complex I (NADH:ubiquinone oxidoreductase) (Caenorhabditis elegans, UniProt P24887+Q93873+Q94360); assay: biochemical; type: biochemical; details: for % Activity Complex I: 100 µM compound, relative to solvent control, mean (SEM); for Percent in vitro activity, Complex I (single replicate Rep1-Rep4) / Percent in vitro activity, Complex I (Mean): 100 μM of NPD compound, C. elegans mitochondria; for Percent in vitro activity, Complex I (single replicate Rep1-Rep4): individual biological replicates; for Percent in vitro activity, Complex I (Mean): mean of four biological replicates
Sequence of C. elegans (N2) complex I (NADH:ubiquinone oxidoreductase) (Q94360 17-199): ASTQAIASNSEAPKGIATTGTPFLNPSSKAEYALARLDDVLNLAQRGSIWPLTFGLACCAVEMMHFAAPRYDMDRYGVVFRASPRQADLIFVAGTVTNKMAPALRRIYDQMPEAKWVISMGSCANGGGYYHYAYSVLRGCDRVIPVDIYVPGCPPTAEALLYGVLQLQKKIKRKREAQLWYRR
Sequence of C. elegans (N2) complex I (NADH:ubiquinone oxidoreductase) (P24887 whole entry): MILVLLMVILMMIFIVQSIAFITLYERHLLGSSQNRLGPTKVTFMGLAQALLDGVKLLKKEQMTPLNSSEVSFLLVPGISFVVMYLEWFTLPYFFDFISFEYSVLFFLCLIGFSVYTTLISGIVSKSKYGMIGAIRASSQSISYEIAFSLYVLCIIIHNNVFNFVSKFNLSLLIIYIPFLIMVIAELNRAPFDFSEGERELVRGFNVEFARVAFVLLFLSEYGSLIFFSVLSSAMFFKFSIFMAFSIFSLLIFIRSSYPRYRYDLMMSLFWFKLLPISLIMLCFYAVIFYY
Sequence of C. elegans (N2) complex I (NADH:ubiquinone oxidoreductase) (Q93873 31-482): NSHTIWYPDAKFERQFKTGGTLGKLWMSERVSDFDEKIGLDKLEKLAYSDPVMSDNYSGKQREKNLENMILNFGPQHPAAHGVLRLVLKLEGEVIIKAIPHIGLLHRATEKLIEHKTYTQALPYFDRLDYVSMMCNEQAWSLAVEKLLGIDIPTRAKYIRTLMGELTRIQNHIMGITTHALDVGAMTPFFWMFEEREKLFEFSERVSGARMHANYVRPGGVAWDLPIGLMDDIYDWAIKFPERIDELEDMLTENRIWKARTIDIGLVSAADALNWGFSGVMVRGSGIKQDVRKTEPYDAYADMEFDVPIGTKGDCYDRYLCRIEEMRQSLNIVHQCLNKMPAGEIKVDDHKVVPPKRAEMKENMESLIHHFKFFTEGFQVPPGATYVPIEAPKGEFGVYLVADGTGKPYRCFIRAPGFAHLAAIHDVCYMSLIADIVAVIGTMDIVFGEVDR
Summary of the method: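 Mitochondria from liquid-cultured adults were freeze-thawed thrice before the 15-min DCIP-coupled NADH oxidation read.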

[4] = target: C. elegans complex II (succinate dehydrogenase) (Caenorhabditis elegans, UniProt O62215+P41956+Q09545); assay: In vitro complex II activity assay, C. elegans mitochondria; type: biochemical; details: for % Activity Complex II: 100 µM compound, relative to solvent control, mean (SEM); for Percent in vitro activity, Complex II (single replicate Rep1-Rep4) / Percent in vitro activity, Complex II (Mean): 100 μM of NPD compound, C. elegans mitochondria; for Percent in vitro activity, Complex II (single replicate Rep1-Rep4): individual biological replicates; for Percent in vitro activity, Complex II (Mean): mean of four biological replicates
Sequence of C. elegans complex II (succinate dehydrogenase) (P41956 30-182): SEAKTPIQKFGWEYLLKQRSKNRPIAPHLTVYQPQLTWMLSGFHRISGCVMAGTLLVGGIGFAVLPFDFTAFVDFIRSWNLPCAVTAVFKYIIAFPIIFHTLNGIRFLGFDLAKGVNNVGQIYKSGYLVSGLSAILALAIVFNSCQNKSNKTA
Sequence of C. elegans complex II (succinate dehydrogenase) (Q09545 22-298): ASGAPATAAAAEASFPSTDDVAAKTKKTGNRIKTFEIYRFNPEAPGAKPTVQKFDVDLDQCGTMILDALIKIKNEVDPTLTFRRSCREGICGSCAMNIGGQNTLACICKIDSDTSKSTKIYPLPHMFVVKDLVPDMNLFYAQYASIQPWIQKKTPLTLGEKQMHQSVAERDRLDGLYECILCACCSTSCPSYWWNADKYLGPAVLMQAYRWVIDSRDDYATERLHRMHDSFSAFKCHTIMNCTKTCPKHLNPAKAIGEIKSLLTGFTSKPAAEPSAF
Sequence of C. elegans complex II (succinate dehydrogenase) (Q09508 32-646, further chain): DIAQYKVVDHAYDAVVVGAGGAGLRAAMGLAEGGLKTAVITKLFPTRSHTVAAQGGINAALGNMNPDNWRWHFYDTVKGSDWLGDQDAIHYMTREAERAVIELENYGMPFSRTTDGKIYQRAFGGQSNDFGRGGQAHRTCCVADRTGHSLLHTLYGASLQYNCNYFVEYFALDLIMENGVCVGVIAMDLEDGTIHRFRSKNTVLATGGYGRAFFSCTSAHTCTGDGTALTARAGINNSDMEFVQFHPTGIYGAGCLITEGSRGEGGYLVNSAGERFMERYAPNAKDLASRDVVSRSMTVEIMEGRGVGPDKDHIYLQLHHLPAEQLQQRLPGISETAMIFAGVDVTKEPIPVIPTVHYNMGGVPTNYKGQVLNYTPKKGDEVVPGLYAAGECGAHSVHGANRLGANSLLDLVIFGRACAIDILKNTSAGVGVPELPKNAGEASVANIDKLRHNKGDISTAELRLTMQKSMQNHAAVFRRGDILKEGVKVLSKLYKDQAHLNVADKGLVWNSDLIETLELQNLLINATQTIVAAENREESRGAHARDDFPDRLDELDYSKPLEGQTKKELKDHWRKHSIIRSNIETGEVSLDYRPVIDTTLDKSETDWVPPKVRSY
Sequence of C. elegans complex II (succinate dehydrogenase) (O62215 31-145): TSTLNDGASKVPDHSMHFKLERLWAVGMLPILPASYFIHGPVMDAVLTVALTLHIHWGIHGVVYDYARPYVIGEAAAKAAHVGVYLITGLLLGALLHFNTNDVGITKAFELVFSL
Procedure: as §1, §2
Complex II (succinate dehydrogenase) activity was assessed using the DCIP-coupled method previously described in Burns et al.[24].
For preliminary screens of hit compounds, compounds were screened at 100 μM; data are the average of at least three biological replicates. The complex I and II activity assays were used for additional dose-response experiments.

L1 wild-type C. elegans = details: for LC50: caenorhabditis elegans
HEK293 cells = details: for CC50: read-out: HEK293 Cell Viability Assay LC50, 2 days exposure

Row | Compound | % Activity Complex III [1] | Percent in vitro activity, Complex III (single replicate Rep1-Rep4) [1] | Percent in vitro activity, Complex III (Mean) [1] [%] | % Activity Complex IV [2] | Percent in vitro activity, Complex IV (single replicate Rep1-Rep4) [2] | Percent in vitro activity, Complex IV (Mean) [2] [%] | Hit Type (C. elegans; hit = modified z-score < −3) | % Activity Complex I [3] | Percent in vitro activity, Complex I (single replicate Rep1-Rep4) [3] | Percent in vitro activity, Complex I (Mean) [3] [%] | % Activity Complex II [4] | Percent in vitro activity, Complex II (single replicate Rep1-Rep4) [4] | Percent in vitro activity, Complex II (Mean) [4] [%] | C. elegans L1 relative motility, 3-hour post 200 µM KCN dilution (L1 wild-type C. elegans) | LC50 (L1 wild-type C. elegans) [µM] | CC50 (HEK293 cells) [µM] | HEK293 viability (HEK293 cells) | Hit Type (C. elegans; […])
1 | O=C1OC(c2ccccc2)=NC1=CC=Cc1ccccc1 (mixture of isomers) [NPD8298] | 101.94 (2.48) % | 91.530% and 111.178% and 95.430% and 109.622% | 101.940 | 108.05 (2.17) % | 99.305% and 106.055% and 106.771% and 120.048% | 108.045 | KCN | 79.90 (1.23) % | 86.721% and 79.429% and 78.427% and 75.015% | 79.898 | 110.37 (5.08) % | 109.359% and 85.283% and 134.975% and 111.861% | 110.370 | 0.014 | 2.57 | > 50 | – | –
2 | Cc1nc2ccc(Br)cc2c2c1CC(C)O2 (racemic) [NP974] | – | – | – | – | – | – | KCN/Dev. & Viability | – | – | – | – | – | – | – | 19 | – | – | –
3 | Cc1nc2ccc(Br)cc2c2c1CC(C(C)(Cl)Br)O2 (racemic) [NPD10211] | – | – | – | – | – | – | KCN/Dev. & Viability | – | – | – | – | – | – | – | 14.5 | – | – | –
4 | CCCCCCCCCCCCCCCc1cccc(O)c1C(=O)O [Anacardic acid] | 0.00 (0.00) % | 0.000% | 0.000 | 15.80 (1.15) % | 11.285% and 16.095% and 13.805% and 22.025% | 15.803 | KCN | 92.95 (1.67) % | 100.303% and 96.789% and 88.185% and 86.534% | 92.953 | 87.62 (1.34) % | 86.093% and 91.144% and 92.500% and 80.735% | 87.618 | – | 3.35 | > 50 | – | –
5 | O=C(/C=C/c1ccccc1)/C=C/c1ccccc1 [FSL0005] | 103.92 (1.25) % | 104.719% and 106.444% and 107.817% and 96.693% | 103.918 | 92.29 (3.01) % | 87.534% and 94.293% and 79.459% and 107.854% | 92.285 | KCN | 91.90 (0.78) % | 93.303% and 89.704% and 95.600% and 88.991% | 91.900 | 80.91 (2.02) % | 88.395% and 79.227% and 70.277% and 85.744% | 80.911 | 0.000 | 0.93 | 7.48 | – | –
6 | O=C(CCCN1C(=O)c2cccc3cccc(c23)C1=O)N1CCN(Cc2ccc3c(c2)OCO3)CC1 [HTD0465] | – | – | – | – | – | – | Dev. & Viability | – | – | – | – | – | – | – | – | 20.5 | – | –
7 | Cc1ccc(N=c2cc(-c3ccc4c(c3)OCO4)oc3ccccc23)cc1C [NPD601] | – | – | – | – | – | – | KCN | – | – | – | – | – | – | – | 13.6 | – | – | –
8 | COc1ccc(-c2cc(=Nc3ccc(C)cc3)c3ccccc3o2)cc1OC [NPD1450] | 111.72 (0.94) % | 113.847% and 114.804% and 111.813% and 106.416% | 111.720 | 117.12 (3.30) % | 109.749% and 111.295% and 110.581% and 136.859% | 117.121 | KCN | 84.47 (2.03) % | 79.543% and 95.426% and 77.236% and 85.664% | 84.467 | 103.01 (4.34) % | 124.470% and 101.843% and 81.995% and 103.742% | 103.012 | – | 35.3 | > 50 | 0.921 | –
9 | CC1(C#CCN2CCCCCC2)CCC2C(O1)c1ccccc1OC2(C)C (stereo not shown) [NPD5219] | – | – | – | – | – | – | Dev. & Viability | – | – | – | – | – | – | – | – | 14.8 | – | –
10 | Cc1cc(O)c(C(=O)/C=C/c2ccc(C(C)C)cc2)c(=O)o1 [NPD6240] | 58.21 (2.30) % | 63.255% and 68.621% and 49.848% and 51.103% | 58.207 | 26.82 (0.75) % | 23.388% and 25.790% and 27.706% and 30.409% | 26.823 | KCN | 102.09 (1.80) % | 109.404% and 106.987% and 94.906% and 97.066% | 102.091 | 87.73 (3.81) % | 105.436% and 95.089% and 72.487% and 77.924% | 87.734 | 0.078 | 7.6 | 24.8 | – | –
11 | COc1ccc(N=c2cc(-c3ccc(OC)c(OC)c3)oc3ccccc23)c(OC)c1 [NPD6383] | – | – | – | – | – | – | KCN | – | – | – | – | – | – | – | 22.2 | – | – | –
12 | COc1ccccc1/C=C/C(=O)c1cc(C)ccc1O [NPD8582] | – | – | – | – | – | – | KCN | – | – | – | – | – | – | – | 14.7 | – | – | –
13 | CCCC[C@@]1(OC(=O)CCC(=O)O)CC[C@]2(CC[C@H](C)[C@@H](C/C=C(C)/C=C/[C@H](O)[C@@H](C)/C=C/C(=O)O)O2)O[C@H]1/C=C/C(C)=C/C(=O)O [Reveromycin A, reference compound] | – | – | – | – | – | – | – | – | – | – | – | – | – | – | – | – | – | Dev. & Viability
14 | CCc1ccc(-c2cc(C(=O)Nc3nccs3)c3ccccc3n2)cc1 [STK418118] | – | – | – | – | – | – | Dev. & Viability | – | – | – | – | – | – | – | – | > 50 | – | –
15 | CN[C@@H]1C[C@H]2O[C@@](C)([C@@H]1OC)n1c3ccccc3c3c4c(c5c6ccccc6n2c5c31)C(=O)NC4 [Staurosporine, reference compound] | – | – | – | – | – | – | – | – | – | – | – | – | – | – | – | – | – | Dev. & Viability
